# Measured values from patent US9409892B2, “4-hydroxy-isoquinoline compounds as HIF hydroxylase inhibitors” (FIBROGEN, INC., priority 2012, dated 2016).
# “And” between values parts separate entries of the source, which are not always exact repeats. Equal values may be shown once. Read-outs that look alike come from different tables or passages of the source.
# Tests used:
# PHD2 (EGLN1) = PHD2 (EGLN1) (Homo sapiens (Human), UniProt Q9GZT9); assay: HIF-PH assay (14CO2 capture), PHD2 enzyme inhibition; format: biochemical; conditions: Table 1
# From the text: (§1) Ketoglutaric acid α-[1-^14C]-sodium salt, alpha-ketoglutaric acid sodium salt, and HPLC purified peptide may be obtained from commercial sources, e.g., Perkin-Elmer (Wellesley Mass.), Sigma-Aldrich, and SynPep Corp. (Dublin Calif.), respectively. Peptides for use in the assay may be fragments of HIFα as described above or as disclosed in International Publication WO 2005/118836, incorporated by reference herein. HIF-pH, e.g., PHD1 (EGLN2) or PHD2 (EGLN1), can be expressed in, e.g., insect Hi5 cells, and partially purified, e.g., through a SP ion exchange chromatography column. Enzyme activity is determined by capturing ^14CO2 using an assay described by Kivirikko and Myllyla (1982, Methods Enzymol. 82:245-304). Assay reactions contain 50 mM HEPES (pH 7.4), 100 μM α-ketoglutaric acid sodium salt, 0.30 mCi/mL ketoglutaric acid α-[1-^14C]-sodium salt, 40 μM FeSO4, 1 mM ascorbate, 1541.8 units/mL Catalase, with or without 50 μM peptide substrate and various concentrations of compound of the invention. Reactions are initiated by addition of HIF-PH enzyme.
# (§2) The peptide-dependent percent turnover is calculated by subtracting percent turnover in the absence of peptide from percent turnover in the presence of substrate peptide. Percent inhibition and IC50 are calculated using peptide-dependent percent turnover at given inhibitor concentrations. Calculation of IC50 values for each inhibitor is conducted using GraFit software (Erithacus Software Ltd., Surrey UK).
# (§3) The PHD2/PHD1 is the ratio of the IC50 of the compound for each enzyme.
# PHD1 (EGLN2) = PHD1 (EGLN2) (Homo sapiens (Human), UniProt Q96KS0); assay: HIF-PH assay (14CO2 capture), PHD1 enzyme inhibition; format: biochemical
# From the text: as §1, §2, §3
# [1] = individual measurement, read-out: IC50 (μM) PHD2
# [2] = Table 1, individual measurement, read-out: IC50 (μM) PHD1
# [3] = Table 1, ratio of the IC50 of the compound for each enzyme
# [4] = Table 2 comparative data, IC50 PHD2/IC50 PHD1
# Sequence of PHD2 (EGLN1) (Q9GZT9 whole entry, the tested form may be a part): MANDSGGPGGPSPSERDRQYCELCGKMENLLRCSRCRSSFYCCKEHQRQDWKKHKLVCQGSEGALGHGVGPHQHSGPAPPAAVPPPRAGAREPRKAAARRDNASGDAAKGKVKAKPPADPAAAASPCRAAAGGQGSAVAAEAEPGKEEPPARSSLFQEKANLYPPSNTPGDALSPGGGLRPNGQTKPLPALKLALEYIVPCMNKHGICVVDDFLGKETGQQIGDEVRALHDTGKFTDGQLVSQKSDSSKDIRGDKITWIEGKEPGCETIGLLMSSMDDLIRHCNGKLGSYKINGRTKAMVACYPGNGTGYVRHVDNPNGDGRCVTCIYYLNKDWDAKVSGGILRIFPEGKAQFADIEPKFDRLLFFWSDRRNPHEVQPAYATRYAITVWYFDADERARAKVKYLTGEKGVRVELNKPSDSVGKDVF
# Sequence of PHD1 (EGLN2) (Q96KS0 whole entry): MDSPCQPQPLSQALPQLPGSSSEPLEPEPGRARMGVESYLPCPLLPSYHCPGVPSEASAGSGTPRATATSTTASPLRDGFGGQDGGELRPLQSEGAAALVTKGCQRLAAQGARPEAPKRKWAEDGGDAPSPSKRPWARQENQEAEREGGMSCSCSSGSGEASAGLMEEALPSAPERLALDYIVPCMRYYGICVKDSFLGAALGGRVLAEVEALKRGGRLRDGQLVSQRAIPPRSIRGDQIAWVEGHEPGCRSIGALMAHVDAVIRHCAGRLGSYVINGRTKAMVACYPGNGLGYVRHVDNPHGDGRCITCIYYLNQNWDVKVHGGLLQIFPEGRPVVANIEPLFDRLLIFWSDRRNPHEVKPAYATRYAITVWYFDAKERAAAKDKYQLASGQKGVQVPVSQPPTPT
SMILES,IC50 (PHD2 (EGLN1); [1]),IC50 (PHD1 (EGLN2); [2]),PHD2/PHD1 (PHD1 (EGLN2); [3]),"IC50 (PHD2 (EGLN1); average of multiple independent measurements, read-out: IC50 (μM) PHD2 avg.) [µM]","IC50 (PHD1 (EGLN2); Table 1, average of multiple independent measurements, read-out: IC50 (μM) PHD1 avg.) [µM]","PHD2/PHD1 avg. (PHD1 (EGLN2); Table 1, average of the ratios of multiple independent measurements) [avg.]",PHD2/PHD1 (PHD1 (EGLN2); [4])
"CC(C)(CCC(=O)O)NC(=O)c1nc(C#N)c2cc(Oc3ccccc3)ccc2c1O [Compound 46, 4-(1-Cyano-4-hydroxy-7-phenoxyisoquinoline-3-carboxamido)-4-methylpentanoic acid]",20.8 µM,0.94 µM,22,,,,
"CC(C)(CNC(=O)c1nc(C#N)c2cc(Oc3cc(F)ccc3Cl)ccc2c1O)C(=O)O [Compound 31, 3-{[7-(2-Chloro-5-fluoro-phenoxy)-1-cyano-4-hydroxy-isoquinoline-3-carbonyl]-amino}-2,2-dimethyl-propionic acid]",4.2 µM,0.53 µM,8,,,,
"CC(C)(CNC(=O)c1nc(C#N)c2cc(Oc3ccc(Cl)cc3)ccc2c1O)C(=O)O [Compound 40, 3-{[7-(4-Chloro-phenoxy)-1-cyano-4-hydroxy-isoquinoline-3-carbonyl]-amino}-2,2-dimethyl-propionic acid]",4.01 µM,0.3 µM,13,,,,
"CC(C)(CNC(=O)c1nc(C#N)c2cc(OCc3ccccc3)ccc2c1O)C(=O)O [Compound 153, 3-[(7-Benzyloxy-1-cyano-4-hydroxy-isoquinoline-3-carbonyl)-amino]-2,2-dimethyl-propionic acid]",30.5 µM,2.58 µM,12,,,,
"O=C(O)CCNC(=O)c1ncc2cc(NC(=O)NCc3ccccc3)ccc2c1O [Compound 133, 3-{[7-(3-Benzyl-ureido)-4-hydroxy-isoquinoline-3-carbonyl]-amino}-propionic acid]",6.06 µM,0.85 µM,7,,,,
"CC(C)(CNC(=O)c1c(O)c2ccc(Oc3ccccc3)cc2c(C#N)[n+]1[O-])C(=O)O [Compound 157, 3-(2-Carboxy-2-methylpropylcarbamoyl)-1-cyano-4-hydroxy-7-phenoxyisoquinoline 2-oxide]",200 µM,13.6 µM,15,,,,
"CC(C)CC(CC(=O)O)NC(=O)c1nc(C#N)c2cc(Oc3ccccc3)ccc2c1O (stereo not drawn) [Compound 66, 3-[(1-Cyano-4-hydroxy-7-phenoxy-isoquinoline-3-carbonyl)-amino]-5-methyl-hexanoic acid]",26.5 µM and 80.5 µM,6.23 µM and 4.8 µM,,53.5,5.52,10.5,
"O=C(O)CNC(=O)c1ncc2cc(Oc3ccccc3)ccc2c1O [U.S. Pat. No. 7,323,475; Example D-7, 2-[(4-Hydroxy-7-phenoxy-isoquinoline-3-carbonyl)-amino]-acetic acid, reference compound]",,,,,,,1.5
"CC(C)(CNC(=O)c1nc(C#N)c2cc(Cc3ccccc3)ccc2c1O)C(=O)O [Compound 164, 3-[(7-Benzyl-1-cyano-4-hydroxy-isoquinoline-3-carbonyl)-amino]-2,2-dimethyl-propionic acid]",18.6 µM,1.35 µM,14,,,,
"N#Cc1nc(C(=O)N[C@H](Cc2ccccc2)[C@@H](O)C(=O)O)c(O)c2ccc(Oc3ccccc3)cc12 [Compound 75, (2R,3R)-3-(1-Cyano-4-hydroxy-7-phenoxyisoquinoline-3-carboxamido)-2-hydroxy-4-phenylbutanoic acid]",18.9 µM,1.17 µM,16,,,,
"N#Cc1nc(C(=O)NCC(C(=O)O)C2CC2)c(O)c2ccc(Oc3c(F)cccc3F)cc12 (stereo not drawn) [Compound 180, 3{-[1-Cyano-7-(2,6-difluoro-phenoxy)-4-hydroxy-isoquinoline-3-carbonyl]-amino}-2-cyclopropyl-propionic acid]",28.9 µM,4.57 µM,6,,,,
"Cc1cccc(C)c1Oc1ccc2c(C#N)nc(C(=O)NCCCC(=O)O)c(O)c2c1 [Compound 110, 4-{[1-Cyano-6-(2,6-dimethyl-phenoxy)-4-hydroxy-isoquinoline-3-carbonyl]-amino}-butyric acid]",21.3 µM,3.63 µM,6,,,,
"CC(C)(CNC(=O)c1nc(C#N)c2ccc(Oc3ccccc3)cc2c1O)C(=O)O [Compound 123, 3-[(1-Cyano-4-hydroxy-6-phenoxy-isoquinoline-3-carbonyl)-amino]-2,2-dimethyl-propionic acid]",183 µM,6.11 µM,30,,,,
"C[C@H](NC(=O)c1nc(C#N)c2cc(Oc3ccccc3)ccc2c1O)[C@@H](C)C(=O)O [Compound 72, (2R,3S)-3-[(1-Cyano-4-hydroxy-7-phenoxy-isoquinoline-3-carbonyl)-amino]-2-methyl-butyric acid]",200 µM,11.8 µM,17,,,,
"O=C(NCC[C@H](O)C(=O)O)c1ncc2cc(Oc3ccccc3)ccc2c1O [Compound 7, 2-(S)-Hydroxy-4-[(4-hydroxy-7-phenoxy-isoquinoline-3-carbonyl)-amino]-butyric acid]",52.7 µM,3.02 µM,17,,,,
"CC(C)(CNC(=O)c1ncc2cc(-c3ccccc3)ccc2c1O)C(=O)O [Compound 129, 3-[(4-Hydroxy-7-phenyl-isoquinoline-3-carbonyl)-amino]-2,2-dimethyl-propionic acid]",180 µM,25.3 µM,7,,,,
"N[C@@H](CNC(=O)c1ncc2cc(Oc3ccccc3)ccc2c1O)C(=O)O [Compound 9, 2-(S)-Amino-3-[(4-hydroxy-7-phenoxy-isoquinoline-3-carbonyl)-amino]-propionic acid]",> 200 µM,33.9 µM,6,,,,
"C[C@H](CC(=O)O)NC(=O)c1nc(C#N)c2cc(Oc3ccccc3)ccc2c1O [Compound 64, 3-(R)-[(1-Cyano-4-hydroxy-7-phenoxy-isoquinoline-3-carbonyl)-amino]-butyric acid]",12.6 µM,0.93 µM,14,,,,
"O=C(O)CCCCNC(=O)c1ncc2cc(Oc3c(F)cccc3F)ccc2c1O [Compound 100, 5-{[7-(2,6-Difluoro-phenoxy)-4-hydroxy-isoquinoline-3-carbonyl]-amino}-pentanoic acid]",200 µM,23.1 µM,9,,,,
"O=C(O)CCNC(=O)c1ncc2cc(Oc3ccccc3)ccc2c1O [Compound 1, 3-[(4-Hydroxy-7-phenoxy-isoquinoline-3-carbonyl)-amino]propionic acid]",10.3 µM,0.92 µM,11,,,,11
"N#Cc1nc(C(=O)NCC2(C(=O)O)CCC2)c(O)c2ccc(Oc3c(F)cccc3F)cc12 [Compound 26, 1-({[1-Cyano-7-(2,6-difluoro-phenoxy)-4-hydroxy-isoquinoline-3-carbonyl]-amino}-methyl)-cyclobutanecarboxylic acid]",5.43 µM,0.7 µM,8,,,,
"N#Cc1nc(C(=O)NC(CC(=O)O)c2ccccc2)c(O)c2ccc(Oc3ccccc3)cc12 (stereo not drawn) [Compound 91, 3-[(1-Cyano-4-hydroxy-7-phenoxy-isoquinoline-3-carbonyl)-amino]-3-phenyl-propionic acid]",11.3 µM,1.91 µM,6,,,,
"N#Cc1nc(C(=O)NCC(=O)O)c(O)c2ccc(Oc3ccccc3)cc12 [U.S. Pat. No. 7,928,120; Example 3, 2-[(1-Cyano-4-hydroxy-7-phenoxy-isoquinoline-3-carbonyl)-amino]-acetic acid, reference compound]",,,,,,,0.4
"C[C@@H](NC(=O)c1nc(C#N)c2cc(Oc3ccccc3)ccc2c1O)[C@@H](C)C(=O)O [Compound 69, (2R,3R)-3-[(1-Cyano-4-hydroxy-7-phenoxy-isoquinoline-3-carbonyl)-amino]-2-methyl-butyric acid]",64.1 µM,2.43 µM,26,,,,
"O=C(O)CNC(=O)c1ncc2cc(Oc3cccnc3)ccc2c1O [U.S. Pat. No. 7,323,475; Example D-67, 2-{[4-Hydroxy-7-(pyridin-3-yloxy)-isoquinoline-3-carbonyl]-amino}-acetic acid, reference compound]",,,,,,,3
"CC(C)(CC(=O)O)NC(=O)c1nc(C#N)c2cc(Oc3ccccc3)ccc2c1O [Compound 82, 3-[(1-Cyano-4-hydroxy-7-phenoxy-isoquinoline-3-carbonyl)-amino]-3-methyl-butyric acid]",,,23,,,,
"N#Cc1nc(C(=O)N[C@H](CC(=O)O)Cc2ccccc2)c(O)c2ccc(Oc3ccccc3)cc12 [Compound 67, (S)-3-[(1-Cyano-4-hydroxy-7-phenoxy-isoquinoline-3-carbonyl)-amino]-4-phenyl-butyric acid]",,3.43 µM,,,,,
"N#Cc1nc(C(=O)N[C@@H](CC(=O)O)Cc2ccccc2)c(O)c2ccc(Oc3ccccc3)cc12 [Compound 68, (R)-3-[(1-Cyano-4-hydroxy-7-phenoxy-isoquinoline-3-carbonyl)-amino]-4-phenyl-butyric acid]",,2.27 µM,,,,,
